In brackets after ≈: the same amount, converted by molar mass.
Assays:
[1] = Stability in citrate-phosphate-borate buffer solutions by TLC; type: physicochemical
Protocol: The first of these manipulations was conducted by storage of this compound in citrate-phosphate-borate buffer solutions, at the pH levels 2, 3, 4, 6, 7, 8, 10, and 12. […] Solutions were exposed to the atmosphere after their constitution.
Compound decomposition was assessed by counting the number of zones apparent by TLC analysis 1 hour, 3 hours, 6 hours, 24 hours, 1 week and 2 weeks after solution composition.

[2] = Thermostability of neat hernandulcin at 100° C. by TLC; type: physicochemical
Source text: These figures represent approximations obtained by calculating TLC zone areas.

[3] = tested on: Salmonella typhimurium strain TM677; test: Forward mutation assay; type: cell-based
Water solubility = type: physicochemical
human taste panel = test: Human taste panel magnitude estimation of sweetness intensity and pleasantness
Source text: Solutions were presented to the subjects in a randomized fashion and were sampled in duplicate. After tasting, each solution was expectorated, and the mouth was washed with distilled water.

male Swiss-Webster mice = test: in vivo; details: oral; for Acute toxicity for mice / Mortality at doses up to 2 g/kg: in words; for Mortality at doses up to 2 g/kg: up to 2 g/kg body weight
Protocol: (§1) Compounds were suspended in a minimum volume of 1% sodium carboxymethylcellulose, and were administered by oral intubation at the doses indicated in Table II.
^a Male SwissWebster mice (9 or 10 animals per dose).
^d Mortality = number of mice dying within 14 days/number of starting
^e Mortality = number of mice dying within 24 hours/number of startin

[4] = Body weight variation in mice following oral administration; details: for Day 14 total body weight vs control values: Day 14, in words
Protocol: as §1

S. mutans [5] = test: Cariogenicity: acid production by S. mutans from sweetener; type: cell-based
Protocol: In a first test, the ability of microbes to utilize this sweetener source as a nutrient and convert it to acidic by-products was determined.

S. mutans [6] = test: Cariogenicity: inhibition of acid production from sucrose by S. mutans; type: cell-based; details: 428 micrograms per unit volume sucrose, 5,000 micrograms per unit volume sweetener
Protocol: In a second test, the ability of the test compound to inhibit acid production from sucrose by S. mutans was determined.

[7] = synthetic hernandulcin, 60° C., 1 week and 2 weeks
[8] = synthetic hernandulcin, 100° C., 24 hours, TLC zone areas
[9] = natural hernandulcin 2.5 × 10^-4 M

SMILES: CC(C)=CCC[C@@](C)(O)[C@H]1CCC(C)=CC1=O (relative stereo) [Hernandulcin, 6-(1',5'-dimethyl-1'-hydroxyhex-4'-en-1'-yl)-3-methyl-2-cyclohexen-1-one]
- Detectability of hernandulcin after storage [1, 7]: detectable at all pH's
- pH dependence of decomposition [1, 7]: greater degrees of decomposition being observed at the acid and alkaline pH extremes
- Breakdown in buffer at 60° C., 1 week and 2 weeks ([1]; synthetic hernandulcin, about 0.1 wt. %, pH 2-12, 60° C.): substantial breakdown was apparent in all solutions
- Decomposition in buffer at 60° C., up to 24 hours ([1]; synthetic hernandulcin, about 0.1 wt. %, pH 2-12, 60° C., up to 24 hours): no decomposition was observed
- Breakdown in buffer at room temperature ([1]; synthetic hernandulcin, about 0.1 wt. %, pH 2-12, room temperature, up to two weeks): no compound breakdown was evident
- Stability to hydrolysis ([1]; wide pH range, up to about 60° C.): relatively stable to hydrolysis over a wide pH range
- remaining at 24 h ([2]; neat compound, read-out: Compound remaining unchanged): ~60%
- Conversion to 3-methyl-2-cyclohexen-1-one [2, 8]: ~10%
- Conversion to 6-methyl-5-hepten-2-one [2, 8]: ~10%
- Mutagenicity ([3]; summary in words): non-mutagenic
- solubility (Water solubility): ~500 µg/mL (≈ 2120 µM)
- EC (sweetness equal to 0.27 M sucrose) (human taste panel; Homo sapiens, natural hernandulcin, distilled water, 17 participants, read-out: Concentration matching the sweetness of 0.27 M sucrose): 250 µM
- Bitterness judged by the panel (human taste panel; in words, natural hernandulcin): moderate bitterness
- Off- and after-tastes judged by the panel (human taste panel; in words, natural hernandulcin): significant off- and after-tastes
- Pleasantness judged by the panel (human taste panel; in words, natural hernandulcin): less pleasant than sucrose
- After-taste intensity (human taste panel; [9]): 30
- After-taste pleasantness (human taste panel; [9]): 0
- Bitterness (human taste panel; [9]): 15
- Off-taste intensity (human taste panel; [9]): 33
- Off-taste pleasantness (human taste panel; [9]): -5
- Concentration matching the sweetness of 0.27 M sucrose (human taste panel; natural hernandulcin, distilled water, 17 participants): ~250 µM
- Sweetness intensity, hernandulcin 1.06 × 10^-5 M (human taste panel; natural, 1.06 × 10^-5 M, scale 0-100, mean (standard error)): 9.7 (4.19)
- Sweetness pleasantness, hernandulcin 1.06 × 10^-5 M (human taste panel; natural, 1.06 × 10^-5 M, scale -100 to +100, mean (standard error)): 1.2 (5.58)
- Sweetness intensity, hernandulcin 2.11 × 10^-5 M (human taste panel; natural, 2.11 × 10^-5 M, scale 0-100, mean (standard error)): 8.8 (2.37)
- Sweetness pleasantness, hernandulcin 2.11 × 10^-5 M (human taste panel; natural, 2.11 × 10^-5 M, scale -100 to +100, mean (standard error)): 2.6 (6.00)
- Sweetness intensity, hernandulcin 4.24 × 10^-5 M (human taste panel; natural, 4.24 × 10^-5 M, scale 0-100, mean (standard error)): 8.8 (3.18)
- Sweetness pleasantness, hernandulcin 4.24 × 10^-5 M (human taste panel; natural, 4.24 × 10^-5 M, scale -100 to +100, mean (standard error)): 1.2 (4.18)
- Sweetness intensity, hernandulcin 8.47 × 10^-5 M (human taste panel; natural, 8.47 × 10^-5 M, scale 0-100, mean (standard error)): 15.8 (4.10)
- Sweetness pleasantness, hernandulcin 8.47 × 10^-5 M (human taste panel; natural, 8.47 × 10^-5 M, scale -100 to +100, mean (standard error)): 4.9 (7.67)
- Sweetness intensity, hernandulcin 16.9 × 10^-5 M (human taste panel; natural, 16.9 × 10^-5 M, scale 0-100, mean (standard error)): 39.7 (3.52)
- Sweetness pleasantness, hernandulcin 16.9 × 10^-5 M (human taste panel; natural, 16.9 × 10^-5 M, scale -100 to +100, mean (standard error)): 24.8 (7.99)
- Sweetness intensity, hernandulcin 33.9 × 10^-5 M (human taste panel; natural, 33.9 × 10^-5 M, scale 0-100, mean (standard error)): 44.4 (5.45)
- Sweetness pleasantness, hernandulcin 33.9 × 10^-5 M (human taste panel; natural, 33.9 × 10^-5 M, scale -100 to +100, mean (standard error)): 8.2 (10.70)
- Sweetness intensity, hernandulcin 67.8 × 10^-5 M (human taste panel; natural, 67.8 × 10^-5 M, scale 0-100, mean (standard error)): 62.7 (5.59)
- Sweetness pleasantness, hernandulcin 67.8 × 10^-5 M (human taste panel; natural, 67.8 × 10^-5 M, scale -100 to +100, mean (standard error)): -16.2 (9.78)
- Sweetness intensity at matched concentration (human taste panel; scale 0-100, sucrose 0.27 M, natural hernandulcin 2.5 × 10^-4 M): 40
- Sweetness pleasantness at matched concentration (human taste panel; scale -100 to +100, natural hernandulcin 2.5 × 10^-4 M): 15
- Acute toxicity for mice (male Swiss-Webster mice): non-toxic
- Mortality at doses up to 2 g/kg (male Swiss-Webster mice): no mortality
- Body weight, Day 1 (1.0 g/kg) ([4]; mouse, in vivo, po): 27.1 ± 0.8 g
- Body weight, Day 1 (2.0 g/kg) ([4]; mouse, in vivo, po): 25.6 ± 0.9 g
- Body weight, Day 3 (1.0 g/kg) ([4]; mouse, in vivo, po): 26.7 ± 0.8 g
- Body weight, Day 3 (2.0 g/kg) ([4]; mouse, in vivo, po): 26.3 ± 0.9 g
- Body weight, Day 7 (1.0 g/kg) ([4]; mouse, in vivo, po): 27.9 ± 0.8 g
- Body weight, Day 7 (2.0 g/kg) ([4]; mouse, in vivo, po): 26.0 ± 0.9 g
- Body weight, Day 14 (1.0 g/kg) ([4]; mouse, in vivo, po): 28.1 ± 0.8 g
- Body weight, Day 14 (2.0 g/kg) ([4]; mouse, in vivo, po): 27.6 ± 0.9 g
- Body weight, pre-drug (1.0 g/kg group) ([4]; mouse, in vivo, po): 29.3 ± 0.8 g
- Body weight, pre-drug (2.0 g/kg group) ([4]; mouse, in vivo, po): 26.0 ± 0.9 g

SMILES: CC(=O)CCC=C(C)C [6-Methyl-5-hepten-2-one, 6-methyl-5-hepten-2-one]
- Mortality at 1.0 g/kg (male Swiss-Webster mice; 1.0 g/kg, 14 days, hernandulcin = synthetic): 0/9
- Mortality at 2.0 g/kg (14 days) (male Swiss-Webster mice; 2.0 g/kg, 14 days, hernandulcin = synthetic): 0/9
- Acute toxicity for mice (male Swiss-Webster mice): essentially non-toxic
- Estimated LD50 (male Swiss-Webster mice; male mice, hernandulcin = synthetic (two enantiomers)): > 2000 mg/kg
- Mortality at doses up to 2 g/kg (male Swiss-Webster mice): no mortality
- Body weight, Day 1 (1.0 g/kg) ([4]; 1.0 g/kg oral, Day 1, hernandulcin = synthetic): 28.2 ± 0.8 g
- Body weight, Day 3 (1.0 g/kg) ([4]; 1.0 g/kg oral, Day 3, hernandulcin = synthetic): 26.3 ± 0.8 g
- Body weight, Day 7 (1.0 g/kg) ([4]; 1.0 g/kg oral, Day 7, hernandulcin = synthetic): 24.7 ± 0.9 g
- Body weight, Day 14 (1.0 g/kg) ([4]; 1.0 g/kg oral, Day 14, hernandulcin = synthetic): 28.0 ± 0.8 g
- Body weight, pre-drug (1.0 g/kg group) ([4]; 1.0 g/kg oral, pre-drug, hernandulcin = synthetic): 27.7 ± 0.8 g
- Body weight, Day 1 (2.0 g/kg) ([4]; 2.0 g/kg oral, Day 1, hernandulcin = synthetic): 28.6 ± 0.8 g
- Body weight, Day 3 (2.0 g/kg) ([4]; 2.0 g/kg oral, Day 3, hernandulcin = synthetic): 26.8 ± 0.9 g
- Body weight, Day 7 (2.0 g/kg) ([4]; 2.0 g/kg oral, Day 7, hernandulcin = synthetic): 25.0 ± 0.9 g
- Body weight, Day 14 (2.0 g/kg) ([4]; 2.0 g/kg oral, Day 14, hernandulcin = synthetic): 24.5 ± 0.8 g
- Body weight, pre-drug (2.0 g/kg group) ([4]; 2.0 g/kg oral, pre-drug, hernandulcin = synthetic): 28.8 ± 0.8 g
- Day 14 total body weight vs control values [4]: Significant difference from controls
- Day 14 total body weight vs control values ([4]; listed as 6-methyl-5-hepten-2-one): significantly different from control values

SMILES: CC(C)=CCC[C@@](C)(O)[C@H]1CCC(C)=CC1=O (relative stereo) [synthetic hernandulcin, 6-(1',5'-dimethyl-1'-hydroxyhex-4'-en-1'-yl)-3-methyl-2-cyclohexen-1-one]
- Mutagenic activity without metabolic activation ([3]; synthetic hernandulcin, in absence of activating system): No significant mutagenic activity
- Mutagenic activity with metabolic activation ([3]; synthetic hernandulcin, in presence of activating system from livers of Aroclor 1254-pretreated rats): No significant mutagenic activity
- Taste (human taste panel; in words, synthetic racemic hernandulcin): sweet
- Rate of acid production at 5,000 micrograms per unit volume (S. mutans [5]; 5,000 micrograms per unit volume sweetener): 2.6×10^-5 mEq acid/min.
- Rate of acid production compared to sucrose (S. mutans [5]; in words, 5,000 micrograms per unit volume): relatively low rate of acid production
- Acute toxicity for mice (male Swiss-Webster mice): non-toxic
- Inhibition of acid production from sucrose (S. mutans [6]): failed to reduce the rate of acid production
